According to US20220257764A1, “USE OF DIKETONE COMPOUND IN PHOTODYNAMIC THERAPY OR DIAGNOSIS” (BEIJING WHOLESOMETECH CO., LTD., priority 2019, published 2022):
Where two headings read alike, the source gives them in different places.

What was measured:
Assay type in all cases: cell-based
[1] = tested on: human immortalized keratinocyte (Hacat cells); test: MTT cytotoxicity to normal cells, Experimental Example 5; details: given under red light, 630-650 nm, 110 mW/cm^2, 900 s, 3 h incubation
Method: (1) Logarithmic phase cells were collected, the concentration of a cell suspension was adjusted, the cell suspension was added to a cell culture plate in a dose of 100 μL per well, and the cells were then added to a cell culture plate so that the density of the cells to be tested was adjusted to 1000-10000 wells (edge wells were filled with sterile PBS). […] Generally, the drug in 5 to 7 gradients was added in a dose of 100 μL per well, and 3 to 5 wells were set for each concentration of a drug. […] Cells in the experimental photosensitizer-light irradiation group were incubated for 15 min and then irradiated with light. […] After light irradiation, the cells were washed with PBS. […] After light irradiation, the cells were washed with PBS. […] If the drug could react with the MTT, centrifuging was carried out first, and then the culture solution was discarded and the cells were carefully washed twice or three times with PBS, and then the culture solution containing MTT was added. (6) The culture was terminated and the culture solution in the wells was carefully removed. (7) Dimethyl sulfoxide was added in a dose of 150 μL per well, and the plate was then shaken on a shaker at a low speed for 10 min to fully dissolve crystals. The absorbance at OD 490 nm of each well was measured with enzyme-linked immunoassay. […]

[2] = tested on: Hela cells; test: MTT toxicity to tumor cells, under light and in the dark; details: Homo sapiens
Method: (§1) In this experimental example, the toxicity of the compound to tumor cells was tested by an MTT method including the following specific steps.
(§2) (1) Logarithmic cells were collected, the concentration of a cell suspension was adjusted, the cell suspension was added to a cell culture plate in a dose of 100 μL per well, and the cells were then added to a cell culture plate so that the density of the cells to be tested was adjusted to 1000-10000 wells (edge wells were filled with sterile PBS).
(§3) (2) The cells were incubated at 37° C. in the presence of 5% CO2 until the cells in a single layer covered the bottom of each well (96-well flat-bottom plate), and a drug in concentration gradients was added. Generally, the drug in 5 to 7 gradients was added in a dose of 100 μL per well, and 3 to 5 multi-wells were set.
(§4) (3) The cells were randomly divided into treated groups under light and treated groups in the dark, incubated at 37° C. in the presence of 5% CO2 for 16 h to 48 h, and observed with an inverted microscope.
(§5) (4) The cells were irradiated for 900 s with a laser having a wavelength of 450 nm to 480 nm (at an intensity of 110 mW/cm^2), and the final light dose was about 100 J/cm^2. After light irradiation, the cells were washed with PBS.
(§6) (5) An MTT solution (5 mg/ml, 0.5% MTT) was added in a dose of 20 μL per well to further incubate the cells for 4 h. If the drug could react with the MTT, centrifuging was carried out first, and then the culture solution was discarded and the cells were carefully washed twice or three times with PBS, and then the culture solution containing MTT was added.
(§7) (6) The culture was terminated and the culture solution in the wells was carefully removed.
(§8) (7) Dimethyl sulfoxide was added in a dose of 150 μL per well, and the plate was then shaken on a shaker at a low speed for 10 min to fully dissolve crystals. The absorbance at OD 490 nm of each well was measured with enzyme-linked immunoassay.
(§9) (8) Zero adjustment wells (medium, MTT, dimethyl sulfoxide) and control wells (cells, dissolving media of the same concentration, culture solution, MTT, dimethyl sulfoxide) were set at the same time.

[3] = tested on: SW480 colon cancer cells; test: as above; details: Homo sapiens
Method: as §1, §2, §3, §4, §5, §6, §7, §8, §9

[4] = tested on: B16 melanoma cell; test: as above; details: Mus musculus, under light, 450-480 nm laser, 110 mW/cm^2, 900 s
Method: as §1, §2, §3, §4, §5, §6, §7, §8, §9

[5] = tested on: Escherichia coli; test: Inhibitory effect on bacteria (colony counting), under light and in the dark
Method: A single Escherichia coli colony was transferred from a solid Luria Bertani (LB) agar plate to 5 ml liquid LB medium and incubated at 37° C. for 12 h. Bacteria were collected by centrifugation (7000 rpm, 1 min) and washed with PBS buffer three times. The supernatant was discarded, and the remaining Escherichia coli cells were resuspended in the PBS buffer. The bacterial suspension was adjusted to make its optical density (OD600) to 1.0. The suspension was then diluted (5 times) with PBS buffer. The diluted Escherichia coli cell suspension was incubated in the dark at 37° C. for 15 min in the presence of a photosensitizer (diketone compound) solution with a concentration of 60 mM, and then irradiated for 200 s under a 15 mW/cm^2 laser light (with a wavelength of 450 nm to 480 nm and in the final light dose of about 3 J cm^2), and after the irradiation the bacterial suspension was serially diluted (10^4 times) with PBS buffer. 100 μL of the diluted bacterial Escherichia coli cell was dispersed on a solid LB agar plate and incubated at 37° C. for 12 h to 16 h, and colonies formed were counted. In the meanwhile, a treated group in the dark and an untreated group in the dark were set; the inhibition rate was determined by dividing the number of colony forming units (cfu) killed in the treated group under light or the treated group in the dark by the number of colony forming units (cfu) killed in the untreated group in the dark.

[6] = under light, 450-480 nm laser, 110 mW/cm^2, 900 s
[7] = SW480, under light, 450-480 nm laser, 110 mW/cm^2, 900 s
[8] = 60 mM, 450-480 nm laser, 15 mW/cm^2, 200 s, read-out: Inhibition rate under light
[9] = 60 mM, in the dark, read-out: Inhibition rate in the dark
[10] = read-out: Inhibition rate in the dark
[11] = read-out: Inhibition rate under light

SMILES | cytotoxicity to Hacat cells [1] | IC50 [2, 6] | IC50 [3, 7] | IC50 [4] | inhibition at 60000 µM [5, 8] | inhibition at 60000 µM [5, 9] | IC50 ([3]; SW480, in the dark) | IC50 ([2]; in the dark) | inhibition at 60000 µM [5, 10] | inhibition at 60000 µM [5, 11]
NCC(=O)CCC(=O)O [ALA, 5-α aminolevulinic acid, reference compound] | relatively high cytotoxicity |  |  |  |  |  |  |  |  | 
O=C(C(=O)c1ccco1)c1ccco1 [BJMU-214] |  | 8800 ± 480 µM | 8.9 ± 0.5 mM | 9000 ± 510 µM | 23% | 5.6% |  |  |  | 
O=C(C(=O)c1ccc(Br)cc1)c1ccc(Br)cc1 [BJMU-211] |  |  | 3.2 ± 0.23 mM |  |  |  | 95 ± 21.3 mM |  |  | 
CC(=O)C(=O)CC(C)C [BJMU-206] |  | 141 ± 37.4 µM | 0.144 ± 0.0319 mM | 144 ± 32.5 µM | 46% | 11.5% |  |  |  | 
CCCCC(=O)C(C)=O [BJMU-205] |  | 5.7 ± 1.7 µM | 0.0064 ± 0.0019 mM | 6.6 ± 1.8 µM | 80% | 2% |  |  |  | 
O=C(C(=O)c1ccncc1)c1ccncc1 [BJMU-210] |  | 9900 ± 700 µM | 9.6 ± 0.6 mM | 9800 ± 700 µM | 24% | 6.4% |  |  |  | 
COc1ccc(C(=O)C(=O)c2ccc(OC)cc2)cc1 [BJMU-213] |  |  | 6.6 ± 0.37 mM |  |  |  |  | 6400 ± 400 µM |  | 
CCCC(=O)C(C)=O [BJMU-202] |  | 2.6 ± 0.6 µM | 0.0025 ± 0.0005 mM | 2.9 ± 0.1 µM | 90 ± 3% | 8.6% |  |  |  | 
CC(=O)C(=O)CBr [BJMU-203] |  | 2.8 ± 1.1 µM | 0.0031 ± 0.0005 mM | 2.7 ± 0.9 µM | 93% | 4.5% |  |  |  | 
O=C(C(=O)c1ccccc1)c1ccccc1 [BJMU-209] |  |  | 7.8 ± 0.48 mM |  |  |  |  | 8200 ± 530 µM | 9.5% | 26%
O=C(O)C(=O)c1ccccc1 [BJMU-207] |  | 93.3 ± 20.3 µM | 0.0992 ± 0.0257 mM | 96.6 ± 26.3 µM | 64% | 7.3% |  |  |  | 
CCC(=O)C(=O)CC [BJMU-201] |  |  | 0.0639 ± 0.0105 mM |  |  |  |  | 59.9 ± 9.9 µM | 4.9% | 58%
CC(=O)C(=O)O [BJMU-208] |  | 162 ± 10.1 µM | 0.173 ± 0.0108 mM | 174 ± 10.9 µM | 45% | 8% |  |  |  | 
O=C(C(=O)c1ccc(F)cc1)c1ccc(F)cc1 [BJMU-212] |  |  | 2.8 ± 0.21 mM |  |  |  | 99 ± 15.8 mM |  |  | 
